Legend:
[1] = molecular target: T1, 5-hydroxytryptamine receptor 1A (Homo sapiens, UniProt P08908)
T1 sequence (P08908 whole entry): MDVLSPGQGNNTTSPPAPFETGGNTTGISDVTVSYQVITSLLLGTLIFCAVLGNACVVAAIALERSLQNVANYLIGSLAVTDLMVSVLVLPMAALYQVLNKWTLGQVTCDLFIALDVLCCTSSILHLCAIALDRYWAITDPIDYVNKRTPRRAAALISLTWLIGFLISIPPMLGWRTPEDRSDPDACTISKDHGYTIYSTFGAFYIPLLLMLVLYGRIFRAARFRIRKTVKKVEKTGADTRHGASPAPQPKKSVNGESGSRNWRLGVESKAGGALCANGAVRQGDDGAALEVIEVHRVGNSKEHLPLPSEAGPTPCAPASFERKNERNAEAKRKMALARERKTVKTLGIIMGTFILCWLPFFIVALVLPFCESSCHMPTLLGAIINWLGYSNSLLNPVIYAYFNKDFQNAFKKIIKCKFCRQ

[2] = molecular target: T2, Solute carrier family 22 member 1 (Homo sapiens, UniProt O15245)
T2 sequence (O15245 whole entry): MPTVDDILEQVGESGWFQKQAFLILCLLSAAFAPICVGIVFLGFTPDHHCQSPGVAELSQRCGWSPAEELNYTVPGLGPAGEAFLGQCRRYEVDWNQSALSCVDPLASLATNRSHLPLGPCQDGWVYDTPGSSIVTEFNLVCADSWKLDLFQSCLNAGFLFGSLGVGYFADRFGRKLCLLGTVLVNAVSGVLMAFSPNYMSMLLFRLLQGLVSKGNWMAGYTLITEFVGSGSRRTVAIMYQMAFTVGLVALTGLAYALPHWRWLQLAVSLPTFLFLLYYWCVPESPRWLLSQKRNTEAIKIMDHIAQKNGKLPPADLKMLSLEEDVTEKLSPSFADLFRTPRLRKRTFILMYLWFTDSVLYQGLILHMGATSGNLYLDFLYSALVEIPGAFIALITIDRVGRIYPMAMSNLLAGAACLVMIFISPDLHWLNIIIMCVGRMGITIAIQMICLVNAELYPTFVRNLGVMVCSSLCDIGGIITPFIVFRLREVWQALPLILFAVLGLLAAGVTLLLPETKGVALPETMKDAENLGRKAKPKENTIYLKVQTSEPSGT

[3] = molecular target: T3, Gamma-aminobutyric acid receptor subunit alpha-1 (Homo sapiens, UniProt P14867)
T3 sequence (P14867 whole entry): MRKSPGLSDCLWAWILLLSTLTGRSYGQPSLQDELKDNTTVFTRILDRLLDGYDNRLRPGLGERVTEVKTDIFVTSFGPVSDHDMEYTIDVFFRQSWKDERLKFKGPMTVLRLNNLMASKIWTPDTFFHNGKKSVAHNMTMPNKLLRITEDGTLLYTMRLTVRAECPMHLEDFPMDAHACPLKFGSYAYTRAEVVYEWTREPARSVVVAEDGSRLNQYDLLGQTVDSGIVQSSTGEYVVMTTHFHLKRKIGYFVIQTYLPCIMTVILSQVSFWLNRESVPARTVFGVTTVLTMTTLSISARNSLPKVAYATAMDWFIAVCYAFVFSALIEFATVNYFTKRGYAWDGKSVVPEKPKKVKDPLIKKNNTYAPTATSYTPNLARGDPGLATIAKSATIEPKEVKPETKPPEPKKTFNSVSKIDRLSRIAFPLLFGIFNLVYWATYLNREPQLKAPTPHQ

D(2) dopamine receptor = D(2) dopamine receptor (Homo sapiens, UniProt P14416)
[4] = molecular target: T4, Alpha-2A adrenergic receptor (Homo sapiens, UniProt P08913)
T4 sequence (P08913 whole entry): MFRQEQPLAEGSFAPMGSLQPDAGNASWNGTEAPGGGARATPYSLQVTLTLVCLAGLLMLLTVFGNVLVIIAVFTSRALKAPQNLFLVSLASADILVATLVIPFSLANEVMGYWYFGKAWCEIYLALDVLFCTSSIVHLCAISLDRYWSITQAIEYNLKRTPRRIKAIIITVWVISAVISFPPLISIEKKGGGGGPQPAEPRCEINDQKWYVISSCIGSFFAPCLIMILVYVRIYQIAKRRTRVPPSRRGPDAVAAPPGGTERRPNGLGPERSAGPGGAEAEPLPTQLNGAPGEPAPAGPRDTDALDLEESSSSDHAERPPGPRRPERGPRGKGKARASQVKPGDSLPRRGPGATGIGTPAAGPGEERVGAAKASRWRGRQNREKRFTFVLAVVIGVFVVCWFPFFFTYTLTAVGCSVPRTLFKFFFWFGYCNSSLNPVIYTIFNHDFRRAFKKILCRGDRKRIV

[5] = molecular target: T5, Muscarinic acetylcholine receptor M2 (Homo sapiens, UniProt P08172)
T5 sequence (P08172 whole entry): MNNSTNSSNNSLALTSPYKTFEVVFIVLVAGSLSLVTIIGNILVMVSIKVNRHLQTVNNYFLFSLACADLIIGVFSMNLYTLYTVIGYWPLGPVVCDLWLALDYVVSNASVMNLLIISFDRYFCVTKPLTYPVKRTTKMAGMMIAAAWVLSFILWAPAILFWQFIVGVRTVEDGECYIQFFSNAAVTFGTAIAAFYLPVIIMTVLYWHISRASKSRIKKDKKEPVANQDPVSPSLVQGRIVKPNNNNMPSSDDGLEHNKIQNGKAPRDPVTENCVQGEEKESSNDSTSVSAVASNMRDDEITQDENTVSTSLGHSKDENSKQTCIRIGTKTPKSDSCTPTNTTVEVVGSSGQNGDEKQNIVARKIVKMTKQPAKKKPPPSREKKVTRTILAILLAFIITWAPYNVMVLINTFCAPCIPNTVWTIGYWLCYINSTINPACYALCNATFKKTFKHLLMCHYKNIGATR

[6] = molecular target: Beta-2 adrenergic receptor (Homo sapiens, UniProt P07550)
D(1A) dopamine receptor = D(1A) dopamine receptor (Homo sapiens, UniProt P21728)
[7] = molecular target: 5-hydroxytryptamine receptor 1D (Homo sapiens, UniProt P28221)
Chain of 5-hydroxytryptamine receptor 1D (P28221 whole entry): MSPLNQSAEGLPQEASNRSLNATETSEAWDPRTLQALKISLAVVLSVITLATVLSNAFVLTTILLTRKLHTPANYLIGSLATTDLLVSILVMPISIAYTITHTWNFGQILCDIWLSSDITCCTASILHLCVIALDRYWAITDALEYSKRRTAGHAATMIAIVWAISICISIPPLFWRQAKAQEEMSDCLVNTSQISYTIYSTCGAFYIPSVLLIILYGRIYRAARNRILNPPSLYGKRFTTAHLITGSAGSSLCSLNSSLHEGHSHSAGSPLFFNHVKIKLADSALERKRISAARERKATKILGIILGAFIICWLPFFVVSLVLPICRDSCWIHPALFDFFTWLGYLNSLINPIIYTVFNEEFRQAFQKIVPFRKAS

Chain of Beta-2 adrenergic receptor (P07550 whole entry): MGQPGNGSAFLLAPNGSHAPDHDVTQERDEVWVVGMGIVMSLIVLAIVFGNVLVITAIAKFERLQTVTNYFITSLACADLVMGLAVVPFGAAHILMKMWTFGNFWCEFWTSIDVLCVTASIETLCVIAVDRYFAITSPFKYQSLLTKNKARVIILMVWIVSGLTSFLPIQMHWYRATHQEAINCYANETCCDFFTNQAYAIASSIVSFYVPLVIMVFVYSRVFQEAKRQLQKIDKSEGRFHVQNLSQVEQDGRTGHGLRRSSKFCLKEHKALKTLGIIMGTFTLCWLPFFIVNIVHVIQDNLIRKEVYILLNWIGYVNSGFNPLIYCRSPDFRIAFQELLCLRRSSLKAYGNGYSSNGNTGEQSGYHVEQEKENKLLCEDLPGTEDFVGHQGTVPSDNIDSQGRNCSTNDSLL
Chain of D(1A) dopamine receptor (P21728 whole entry): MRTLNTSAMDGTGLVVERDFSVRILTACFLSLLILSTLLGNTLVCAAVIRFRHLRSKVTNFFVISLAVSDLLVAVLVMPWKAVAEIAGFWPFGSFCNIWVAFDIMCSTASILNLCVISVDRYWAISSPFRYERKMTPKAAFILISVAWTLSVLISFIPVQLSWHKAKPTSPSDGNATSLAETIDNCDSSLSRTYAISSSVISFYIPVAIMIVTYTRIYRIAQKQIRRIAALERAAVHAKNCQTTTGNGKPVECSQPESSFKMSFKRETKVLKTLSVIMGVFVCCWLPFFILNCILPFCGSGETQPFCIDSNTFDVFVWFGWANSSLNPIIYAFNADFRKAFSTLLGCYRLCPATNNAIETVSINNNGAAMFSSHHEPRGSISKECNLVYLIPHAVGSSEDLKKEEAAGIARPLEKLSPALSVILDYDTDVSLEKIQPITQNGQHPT
Chain of D(2) dopamine receptor (P14416 whole entry): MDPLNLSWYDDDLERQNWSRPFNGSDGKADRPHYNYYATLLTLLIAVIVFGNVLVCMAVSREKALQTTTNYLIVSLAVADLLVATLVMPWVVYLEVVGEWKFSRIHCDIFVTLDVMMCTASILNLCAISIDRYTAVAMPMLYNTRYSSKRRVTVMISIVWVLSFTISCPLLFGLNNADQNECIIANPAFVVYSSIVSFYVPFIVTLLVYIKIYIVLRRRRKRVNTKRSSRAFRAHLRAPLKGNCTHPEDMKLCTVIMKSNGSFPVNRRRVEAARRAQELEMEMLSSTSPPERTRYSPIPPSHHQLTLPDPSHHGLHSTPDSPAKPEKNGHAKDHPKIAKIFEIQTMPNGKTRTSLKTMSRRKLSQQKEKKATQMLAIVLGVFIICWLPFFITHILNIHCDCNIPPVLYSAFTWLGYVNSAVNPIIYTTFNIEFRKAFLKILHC

Clc1cccc(N2CCNCC2)c1 [mCPP]
Ki [1]: 400 nM
Ki [2]: 2900 nM
Ki [3]: > 10 µM
Ki (D(2) dopamine receptor): > 10 µM
Ki [4]: 570 nM
Ki [5]: > 10 µM
Ki [6]: 2500 nM
Ki (D(1A) dopamine receptor): 7 µM
Ki [7]: 1300 nM

Source: BindingDB's records for doi:10.1016/0006-3223(89)90217-5 (Stanford University, 1989)
